The values below are quoted from earlier work in patent US8475827B2, “Tissue implants for implantation and methods for preparing the same” (CryoLife, Inc., priority 2010, dated 2013).

The test system of this data set is sensitive bacteria. The following applies: literature review.

For `NCC[C@H](O)C(=O)N[C@@H]1C[C@H](N)[C@@H](O[C@H]2O[C@H](CN)[C@@H](O)[C@H](O)[C@H]2O)[C@H](O)[C@H]1O[C@H]1O[C@H](CO)[C@@H](O)[C@H](N)[C@H]1O` [amikacin], the “minimum inhibitory concentration against sensitive bacteria (MIC) range” value is 0.125 to 32 µg/mL.
